One experiment deals with T1, human Kv1.1 (HEK293) (Homo sapiens, UniProt Q09470).
T1 construct: expressed in transfected cells; host or cells: HEK293
Put plainly: cell-based.

For a further experiment, the target named is T2, human Kv1.3 (CHO) (Homo sapiens, UniProt P22001).
T2 construct: expressed in transfected cells; host or cells: CHO
Kind of experiment: cell-based.

Molecules are shown by their SMILES. Bridge positions count the residues as written; N and C are the ends. Square brackets hold non-standard residues; d marks the D form. Peptide text beside a SMILES is read from it. 1Nal = N[C@@H](Cc1cccc2ccccc12)C(=O)O Some results are limits rather than exact numbers.

The text below walks through data of patent US20090299044A1 (priority 2006, published 2009).

Broadly, the IC50 is the concentration that inhibits the measured activity by half. The low end stands for inhibition by little substance, the high end for a need for much substance.

T2 sequence (P22001 whole entry): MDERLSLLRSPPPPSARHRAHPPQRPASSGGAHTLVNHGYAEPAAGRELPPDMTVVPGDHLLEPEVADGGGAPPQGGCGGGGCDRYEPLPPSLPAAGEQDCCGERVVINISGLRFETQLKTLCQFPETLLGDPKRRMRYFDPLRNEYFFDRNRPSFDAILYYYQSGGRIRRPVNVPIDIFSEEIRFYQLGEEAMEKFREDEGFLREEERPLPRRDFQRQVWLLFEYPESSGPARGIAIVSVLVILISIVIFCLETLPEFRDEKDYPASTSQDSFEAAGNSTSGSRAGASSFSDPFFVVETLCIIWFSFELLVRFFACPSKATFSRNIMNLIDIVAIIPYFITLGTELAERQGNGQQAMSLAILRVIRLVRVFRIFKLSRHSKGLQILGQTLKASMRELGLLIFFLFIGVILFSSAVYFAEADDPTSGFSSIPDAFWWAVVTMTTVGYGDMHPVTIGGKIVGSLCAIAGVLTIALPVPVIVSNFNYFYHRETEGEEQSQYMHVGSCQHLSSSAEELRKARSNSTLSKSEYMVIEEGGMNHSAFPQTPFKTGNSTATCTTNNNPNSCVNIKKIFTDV
T1 sequence (Q09470 whole entry): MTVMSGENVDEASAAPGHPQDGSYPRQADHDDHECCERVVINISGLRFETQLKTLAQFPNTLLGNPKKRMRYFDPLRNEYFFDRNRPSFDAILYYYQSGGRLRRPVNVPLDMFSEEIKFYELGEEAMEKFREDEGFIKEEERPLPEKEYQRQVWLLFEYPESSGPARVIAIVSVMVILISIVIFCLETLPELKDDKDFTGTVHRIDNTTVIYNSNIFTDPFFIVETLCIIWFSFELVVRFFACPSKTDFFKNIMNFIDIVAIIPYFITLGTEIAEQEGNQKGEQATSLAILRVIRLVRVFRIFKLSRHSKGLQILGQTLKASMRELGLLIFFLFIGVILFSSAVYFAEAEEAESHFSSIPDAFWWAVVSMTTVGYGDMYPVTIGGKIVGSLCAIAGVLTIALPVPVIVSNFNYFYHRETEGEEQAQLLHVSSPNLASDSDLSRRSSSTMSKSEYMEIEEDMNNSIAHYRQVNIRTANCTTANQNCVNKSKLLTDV

Take `CC[C@H](C)[C@@H]1NC(=O)[C@H](CCCCN)NC(=O)[C@@H](NC(=O)[C@H](CCCCN)NC(=O)[C@@H](NC(=O)[C@H](CC(N)=O)NC(=O)[C@@H](NC(=O)[C@@H](NC(=O)[C@@H](NC(=O)CN)C(C)C)[C@@H](C)CC)[C@@H](C)CC)C(C)C)CSSC[C@@H]2NC(=O)[C@H](CCCCN)NC(=O)CNC(=O)[C@H](Cc3ccccc3)NC(=O)[C@H](CCCNC(=N)N)NC(=O)[C@H](CCSC)NC(=O)CNC(=O)[C@H](C)NC(=O)[C@H](CCCCN)NC(=O)[C@H](CCCCN)NC(=O)[C@@H]3CSSC[C@@H](C(=O)N[C@H](C(=O)N4CCC[C@H]4C(=O)N[C@@H](CCC(=O)O)C(=O)O)[C@@H](C)O)NC(=O)[C@H](Cc4c[nH]cn4)NC(=O)[C@H](CSSC[C@H](NC(=O)[C@H](CCC(N)=O)NC(=O)[C@H](CCCNC(=N)N)NC(=O)[C@H](CO)NC1=O)C(=O)N[C@@H](CC(C)C)C(=O)N[C@@H](CCC(=O)O)C(=O)N1CCC[C@H]1C(=O)N3)NC(=O)[C@H](CCCCN)NC(=O)CNC(=O)[C@H](CC(N)=O)NC(=O)[C@H](CCSC)NC2=O` [K38E] (H-GVIINVKCKISRQCLEPCKKAGMRFGKCMNGKCHCTPE-OH; disulfide 8-28, 14-33, 18-35): the half-maximal inhibitory concentration (IC50) against human Kv1.1 (HEK293) worked out at 0.0343 nM; on human Kv1.3 (CHO), 0.0258 nM.
As to `CC[C@H](C)[C@@H]1NC(=O)[C@H](CCCCN)NC(=O)[C@@H](NC(=O)[C@H](CCCCN)NC(=O)[C@@H](NC(=O)[C@H](CC(N)=O)NC(=O)[C@@H](NC(=O)[C@@H](NC(=O)[C@@H](NC(=O)CN)C(C)C)[C@@H](C)CC)[C@@H](C)CC)C(C)C)CSSC[C@@H]2NC(=O)[C@H](CCCCN)NC(=O)CNC(=O)[C@H](Cc3ccccc3)NC(=O)[C@H](CCCNC(=N)N)NC(=O)[C@H](CCSC)NC(=O)CNC(=O)[C@H](C)NC(=O)[C@H](CCCCN)NC(=O)[C@H](CCCCN)NC(=O)[C@@H]3CSSC[C@@H](C(=O)N[C@H](C(=O)N4CCC[C@H]4C(=O)N[C@@H](CCCNC(=N)N)C(=O)O)[C@@H](C)O)NC(=O)[C@H](Cc4c[nH]cn4)NC(=O)[C@H](CSSC[C@H](NC(=O)[C@H](CCC(N)=O)NC(=O)[C@H](CCCNC(=N)N)NC(=O)[C@H](CO)NC1=O)C(=O)N[C@@H](CC(C)C)C(=O)N[C@@H](CCC(=O)O)C(=O)N1CCC[C@H]1C(=O)N3)NC(=O)[C@H](CCCCN)NC(=O)CNC(=O)[C@H](CC(N)=O)NC(=O)[C@H](CCSC)NC2=O` [K38R] (H-GVIINVKCKISRQCLEPCKKAGMRFGKCMNGKCHCTPR-OH; disulfide 8-28, 14-33, 18-35), the IC50 was determined as 0.00184 nM against human Kv1.1 (HEK293) and 0.015 nM against human Kv1.3 (CHO).
The corresponding values for `CC[C@H](C)[C@@H]1NC(=O)[C@H](CCCCN)NC(=O)[C@@H](NC(=O)[C@H](CCCCN)NC(=O)[C@@H](NC(=O)[C@H](CC(N)=O)NC(=O)[C@@H](NC(=O)[C@@H](NC(=O)[C@@H](NC(=O)CN)C(C)C)[C@@H](C)CC)[C@@H](C)CC)C(C)C)CSSC[C@@H]2NC(=O)[C@H](CCCCN)NC(=O)CNC(=O)[C@H](Cc3ccccc3)NC(=O)[C@H](CCCNC(=N)N)NC(=O)[C@H](CCSC)NC(=O)CNC(=O)[C@H](C)NC(=O)[C@H](CCCCN)NC(=O)[C@H](CCCCN)NC(=O)[C@@H]3CSSC[C@@H](C(=O)N[C@H](C(=O)N4CCC[C@H]4C(=O)N[C@@H](CCCCN)C(=O)O)[C@@H](C)O)NC(=O)[C@H](Cc4c[nH]cn4)NC(=O)[C@H](CSSC[C@H](NC(=O)[C@H](CCC(N)=O)NC(=O)[C@H](CCCNC(=N)N)NC(=O)[C@H](CO)NC1=O)C(=O)N[C@@H](C)C(=O)N[C@@H](CCC(=O)O)C(=O)N1CCC[C@H]1C(=O)N3)NC(=O)[C@H](CCCCN)NC(=O)CNC(=O)[C@H](CC(N)=O)NC(=O)[C@H](CCSC)NC2=O` [L15A] (H-GVIINVKCKISRQCAEPCKKAGMRFGKCMNGKCHCTPK-OH; disulfide 8-28, 14-33, 18-35) are 0.015 nM and 0.0431 nM.
The corresponding values for `CC[C@H](C)[C@@H]1NC(=O)[C@H](CCCCN)NC(=O)[C@@H](NC(=O)[C@H](CCCCN)NC(=O)[C@@H](NC(=O)[C@H](CC(N)=O)NC(=O)[C@@H](NC(=O)[C@@H](NC(=O)[C@@H](NC(=O)CN)C(C)C)[C@@H](C)CC)[C@@H](C)CC)C(C)C)CSSC[C@@H]2NC(=O)[C@H](CCCCN)NC(=O)CNC(=O)[C@H](Cc3ccccc3)NC(=O)[C@H](CCCNC(=N)N)NC(=O)[C@H](CCSC)NC(=O)CNC(=O)[C@H](C)NC(=O)[C@H](CCCCN)NC(=O)[C@H](CCCCN)NC(=O)[C@@H]3CSSC[C@@H](C(=O)N[C@H](C(=O)N4CCC[C@H]4C(=O)N[C@@H](CCCCN)C(=O)O)[C@@H](C)O)NC(=O)[C@H](Cc4c[nH]cn4)NC(=O)[C@H](CSSC[C@H](NC(=O)[C@H](CCC(N)=O)NC(=O)[C@H](CCCNC(=N)N)NC(=O)[C@H](CO)NC1=O)C(=O)N[C@@H](Cc1cccc4ccccc14)C(=O)N[C@@H](CCC(=O)O)C(=O)N1CCC[C@H]1C(=O)N3)NC(=O)[C@H](CCCCN)NC(=O)CNC(=O)[C@H](CC(N)=O)NC(=O)[C@H](CCSC)NC2=O` [L15Nal] (H-GVIINVKCKISRQC[1Nal]EPCKKAGMRFGKCMNGKCHCTPK-OH; disulfide 8-28, 14-33, 18-35) are < 0.00152 nM and 0.0178 nM.
The corresponding values for `CC[C@H](C)[C@@H]1NC(=O)[C@H](CCCCN)NC(=O)[C@@H](NC(=O)[C@H](CCCCN)NC(=O)[C@@H](NC(=O)[C@H](CC(N)=O)NC(=O)[C@@H](NC(=O)[C@@H](NC(=O)[C@@H](NC(=O)CN)C(C)C)[C@@H](C)CC)[C@@H](C)CC)C(C)C)CSSC[C@@H]2NC(=O)[C@H](CCCCN)NC(=O)CNC(=O)[C@H](Cc3ccccc3)NC(=O)[C@H](CCCNC(=N)N)NC(=O)[C@H](CCSC)NC(=O)CNC(=O)[C@H](C)NC(=O)[C@H](CCCCN)NC(=O)[C@H](CCCCN)NC(=O)[C@@H]3CSSC[C@@H](C(=O)N[C@H](C(=O)N4CCC[C@H]4C(=O)N[C@@H](CCCCN)C(=O)O)[C@@H](C)O)NC(=O)[C@H](Cc4c[nH]cn4)NC(=O)[C@H](CSSC[C@H](NC(=O)[C@H](CCC(N)=O)NC(=O)[C@H](CCCNC(=N)N)NC(=O)[C@H](CO)NC1=O)C(=O)N[C@@H](CCCNC(=N)N)C(=O)N[C@@H](CCC(=O)O)C(=O)N1CCC[C@H]1C(=O)N3)NC(=O)[C@H](CCCCN)NC(=O)CNC(=O)[C@H](CC(N)=O)NC(=O)[C@H](CCSC)NC2=O` [L15R] (H-GVIINVKCKISRQCREPCKKAGMRFGKCMNGKCHCTPK-OH; disulfide 8-28, 14-33, 18-35) are 0.00216 nM and 0.0137 nM.
Regarding `CC[C@H](C)[C@@H]1NC(=O)[C@H](CCCCN)NC(=O)[C@@H](NC(=O)[C@H](CCCCN)NC(=O)[C@@H](NC(=O)[C@H](CC(N)=O)NC(=O)[C@@H](NC(=O)[C@@H](NC(=O)[C@@H](NC(=O)CN)C(C)C)[C@@H](C)CC)[C@@H](C)CC)C(C)C)CSSC[C@@H]2NC(=O)[C@H](CCCCN)NC(=O)CNC(=O)[C@H](Cc3ccccc3)NC(=O)[C@H](CCCNC(=N)N)NC(=O)[C@H](C)NC(=O)CNC(=O)[C@H](C)NC(=O)[C@H](CCCCN)NC(=O)[C@H](CCCCN)NC(=O)[C@@H]3CSSC[C@@H](C(=O)N[C@H](C(=O)N4CCC[C@H]4C(=O)N[C@@H](CCCCN)C(=O)O)[C@@H](C)O)NC(=O)[C@H](Cc4c[nH]cn4)NC(=O)[C@H](CSSC[C@H](NC(=O)[C@H](CCC(N)=O)NC(=O)[C@H](CCCNC(=N)N)NC(=O)[C@H](CO)NC1=O)C(=O)N[C@@H](CC(C)C)C(=O)N[C@@H](CCC(=O)O)C(=O)N1CCC[C@H]1C(=O)N3)NC(=O)[C@H](CCCCN)NC(=O)CNC(=O)[C@H](CC(N)=O)NC(=O)[C@H](CCSC)NC2=O` [M23A] (H-GVIINVKCKISRQCLEPCKKAGARFGKCMNGKCHCTPK-OH; disulfide 8-28, 14-33, 18-35), the figures for the IC50 at human Kv1.1 (HEK293) and against human Kv1.3 (CHO) were 0.0386 nM and 0.0714 nM, respectively.
On to `CC[C@H](C)[C@@H]1NC(=O)[C@H](CCCCN)NC(=O)[C@@H](NC(=O)[C@H](CCCCN)NC(=O)[C@@H](NC(=O)[C@H](CC(N)=O)NC(=O)[C@@H](NC(=O)[C@@H](NC(=O)[C@@H](NC(=O)CN)C(C)C)[C@@H](C)CC)[C@@H](C)CC)C(C)C)CSSC[C@@H]2NC(=O)[C@H](CCCCN)NC(=O)CNC(=O)[C@H](Cc3ccccc3)NC(=O)[C@H](CCCNC(=N)N)NC(=O)[C@H](CCC(=O)O)NC(=O)CNC(=O)[C@H](C)NC(=O)[C@H](CCCCN)NC(=O)[C@H](CCCCN)NC(=O)[C@@H]3CSSC[C@@H](C(=O)N[C@H](C(=O)N4CCC[C@H]4C(=O)N[C@@H](CCCCN)C(=O)O)[C@@H](C)O)NC(=O)[C@H](Cc4c[nH]cn4)NC(=O)[C@H](CSSC[C@H](NC(=O)[C@H](CCC(N)=O)NC(=O)[C@H](CCCNC(=N)N)NC(=O)[C@H](CO)NC1=O)C(=O)N[C@@H](CC(C)C)C(=O)N[C@@H](CCC(=O)O)C(=O)N1CCC[C@H]1C(=O)N3)NC(=O)[C@H](CCCCN)NC(=O)CNC(=O)[C@H](CC(N)=O)NC(=O)[C@H](CCSC)NC2=O` [M23E] (H-GVIINVKCKISRQCLEPCKKAGERFGKCMNGKCHCTPK-OH; disulfide 8-28, 14-33, 18-35), for which the values for the half-inhibitory concentration (IC50) on human Kv1.1 (HEK293) and at human Kv1.3 (CHO) were 0.0104 nM and 0.0243 nM, respectively.
For the compound `CC[C@H](C)[C@@H]1NC(=O)[C@H](CCCCN)NC(=O)[C@@H](NC(=O)[C@H](CCCCN)NC(=O)[C@@H](NC(=O)[C@H](CC(N)=O)NC(=O)[C@@H](NC(=O)[C@@H](NC(=O)[C@@H](NC(=O)CN)C(C)C)[C@@H](C)CC)[C@@H](C)CC)C(C)C)CSSC[C@@H]2NC(=O)[C@H](CCCCN)NC(=O)CNC(=O)[C@H](Cc3ccccc3)NC(=O)[C@H](CCCNC(=N)N)NC(=O)[C@H](CCCNC(=N)N)NC(=O)CNC(=O)[C@H](C)NC(=O)[C@H](CCCCN)NC(=O)[C@H](CCCCN)NC(=O)[C@@H]3CSSC[C@@H](C(=O)N[C@H](C(=O)N4CCC[C@H]4C(=O)N[C@@H](CCCCN)C(=O)O)[C@@H](C)O)NC(=O)[C@H](Cc4c[nH]cn4)NC(=O)[C@H](CSSC[C@H](NC(=O)[C@H](CCC(N)=O)NC(=O)[C@H](CCCNC(=N)N)NC(=O)[C@H](CO)NC1=O)C(=O)N[C@@H](CC(C)C)C(=O)N[C@@H](CCC(=O)O)C(=O)N1CCC[C@H]1C(=O)N3)NC(=O)[C@H](CCCCN)NC(=O)CNC(=O)[C@H](CC(N)=O)NC(=O)[C@H](CCSC)NC2=O` [M23R] (H-GVIINVKCKISRQCLEPCKKAGRRFGKCMNGKCHCTPK-OH; disulfide 8-28, 14-33, 18-35), the IC50 on human Kv1.1 (HEK293) was 0.00201 nM; against human Kv1.3 (CHO), 0.0123 nM.
